Legend:
HL60 = test: XTT cytotoxicity assay, HL-60; assay type: cell-based; conditions: Homo sapiens, HL-60; 72 h incubation; read-out: XTT, IC50 HL60
Procedure: HL-60, Hela S3 and HepG2 cell lines (ATCC) were grown in RPMI-1640 or DMEM medium supplemented with 10% fetal calf serum, […] of streptomycin, 200 U/mL of penicillin G and 4 mM glutamine in a humidified atmosphere containing 5% CO2 at 37° C. Sensitivity of these cell lines to the synthesized compounds was assessed with the use of XTT cell proliferation kit II (Roche Diagnostics GmbH, Mannheim, Germany) according to the manufacturer's instructions. Briefly, cells were seeded in a 96-well plate at a density of 10,000 cells per well (90 μL). After 24 h, 10 μL of the tested compounds were added to the culture media at desired concentration range and incubated for 72 h. After that 50 μL of the XTT solution was added (1 mg/mL XTT+0.383 mg/mL N-methyl dibenzopyrazine methyl sulfate). The absorbance was recorded at 495 nm following a 2 h-incubation with the dye. IC50 values were determined by non-linear regression method using GraphPad Prism version 5.00 for Windows (GraphPad Software, La Jolla, Calif., USA).
In addition, the anti-proliferative effect was tested against a human T-lymphoblastic leukemia line CCRF-CEM, promyelocytic leukemia HL-60 and cervical carcinoma HeLa S3 growing in liquid suspension. Cell viability was determined following a 3-day incubation using 2,3-bis-(2-methoxy-4-nitro-5-sulfophenyl)-2H-tetrazolium-5-carboxanilide (XTT) assay (ref.: Scudiero, D. A.; Shoemaker, R. H.; Paull, K. D.; Monks, A.; Tierney, S.; Nofziger, T. H.; Currens, M. J.; Seniff, D.; Boyd M. R. Evaluation of a Soluble Tetrazolium/Formazan Assay for Cell Growth and Drug Sensitivity in Culture Using Human and Other Tumor Cell Lines. Cancer Res. 1988, 48, 4827-4833).

CCRF-CEM cells [1] = test: Cell cycle and apoptosis analysis (flow cytometry, propidium iodide); assay type: cell-based, human; conditions: for G1, % of total cell populations / G2/M, % of total cell populations / S, % of total cell populations / sub-G1 (apoptosis), % of total cell populations: CCRF-CEM cells treated at IC50 for 24 hrs
Procedure: (§1) After the incubation period, cells were then washed with cold 1×PBS and fixed in 70% ethanol added dropwise and stored overnight at −20° C. Afterwards, cells were washed in hypotonic citrate buffer, treated with RNase (50 μg/mL) and stained with propidium iodide. Flow cytometry using a 488 nm single-beam laser (Becton Dickinson) was used for measurement. The data were analyzed according to the program ModFitLT (Verity), and apoptosis was expressed as the percentage of cells with a propidium content lower than that in the G0/G1 population. Half of the sample was used for pH3^ser10 antibody (Sigma) labeling and subsequent flow cytometry analysis of mitotic cells.
(§2) However, the major mechanism of action was inhibition of RNA synthesis (BrU incorporation). […] Cell cycle alterations (G1, S, G2/M) were not observed in treated cells under specified experimental conditions.

CCRF-CEM cells [2] = test: Mitotic cells, pH3Ser10 antibody labeling (flow cytometry); assay type: cell-based, human; conditions: CCRF-CEM cells treated at IC50 for 24 hrs
Procedure: as §1, §2

CCRF-CEM cells [3] = test: BrdU incorporation analysis (DNA synthesis); assay type: cell-based, human; conditions: for BrdU+ (DNA synthesis), % of total cell populations: CCRF-CEM cells treated at IC50 for 24 hrs; for DNA synthesis inhibition in words: CCRF-CEM, IC50, 24 hours
Procedure: Cells were cultured as for cell cycle analysis. Before harvesting, they were pulse-labelled with 10 M 5-bromo-2′-deoxyuridine (BrdU) for 30 min. The cells were trypsinized, fixed with ice-cold 70% ethanol, incubated on ice for 30 min, washed with PBS, and resuspended in 2 M HCl for 30 min at room temperature to denature their DNA. Following neutralization with 0.1 M Na2B4O7, the cells were washed with PBS containing 0.5% Tween-20 and 1% BSA. They were then stained with primary anti-BrdU antibody (Exbio) for 30 min at room temperature in the dark. Cells were than washed with PBS and stained with secondary anti-mouse-FITC antibody (Sigma). The cells were then washed with PBS, incubated with propidium iodide (0.1 mg/mL) and RNAse A (0.5 mg/mL) for 1 h at room temperature in the dark, and finally analyzed by flow cytometry using a 488 nm single-beam laser (FACSCalibur, Becton Dickinson).
as §2

CCRF-CEM cells [4] = test: BrU incorporation analysis (RNA synthesis); assay type: cell-based, human; conditions: CCRF-CEM cells treated at IC50 for 24 hrs
Procedure: Cells were cultured and treated as for cell cycle analysis. Before harvesting, they were pulse-labelled with 1 mM 5-bromouridine (BrU) for 30 min. The cells were fixed in 1% buffered paraformaldehyde with 0.05% of NP-40, incubated in room temperature for 15 min and than in the fridge overnight. They were then washed in 1% glycin in PBS, washed in PBS and stained with primary anti-BrdU antibody crossreacting to BrU (Exbio) for 30 min at room temperature in the dark. Cells were than washed with PBS and stained with secondary anti-mouse-FITC antibody (Sigma). Following the staining the cells are washed with PBS and fixed with 1% PBS buffered paraformaldehyde with 0.05% of NP-40. The cells were then washed with PBS, incubated with propidium iodide (0.1 mg/mL) and RNAse A (0.5 mg/mL) for 1 h at room temperature in the dark, and finally analyzed by flow cytometry using a 488 nm single-beam laser (FACSCalibur, Becton Dickinson).
as §2

Structure (SMILES)	IC50 (HL60) [µM]	G1, % of total cell populations (CCRF-CEM cells [1]) [%]	G2/M, % of total cell populations (CCRF-CEM cells [1]) [%]	S, % of total cell populations (CCRF-CEM cells [1]) [%]	sub-G1 (apoptosis), % of total cell populations (CCRF-CEM cells [1]) [%]	pH3Ser10+ (mitosis), % of total cell populations (CCRF-CEM cells [2]) [%]	BrdU+ (DNA synthesis), % of total cell populations (CCRF-CEM cells [3]) [%]	BrU+ (RNA synthesis), % of total cell populations (CCRF-CEM cells [4]) [%]	melting point [°C]	apoptosis induction in words (CCRF-CEM cells [1]; CCRF-CEM, IC50, 24 hours)	DNA synthesis inhibition in words (CCRF-CEM cells [3])
COc1ncnc2c1c(-c1ccco1)cn2[C@@H]1O[C@H](CO)[C@@H](O)[C@H]1O [Compound 1a, 5-(Furan-2-yl)-4-methoxy-7-(β-D-ribofuranosyl)-7H-pyrrolo[2,3-d]pyrimidine]	0.1	42.8	12.9	44.3	6.8	1.4	45.3	13.8	–	–	–
COc1ncnc2c1c(-c1ccoc1)cn2[C@@H]1O[C@H](CO)[C@@H](O)[C@H]1O [Compound 1b, 5-(Furan-3-yl)-4-methoxy-7-(β-D-ribofuranosyl)-7H-pyrrolo[2,3-d]pyrimidine]	0.15	43.5	12.3	44.2	8.5	1.6	44.2	0.7	190 to 192	–	–
COc1ncnc2c1c(-c1cccs1)cn2[C@@H]1O[C@H](CO)[C@@H](O)[C@H]1O [Compound 1c, 4-Methoxy-7-(β-D-ribofuranosyl)-5-(thiophen-2-yl)-7H-pyrrolo[2,3-d]pyrimidine]	0.08	41.5	9.8	48.7	7.5	1.1	38.6	0.1	140 to 143	–	–
COc1ncnc2c1c(-c1ccsc1)cn2[C@@H]1O[C@H](CO)[C@@H](O)[C@H]1O [Compound 1d, 4-Methoxy-7-(β-D-ribofuranosyl)-5-(thiophen-3-yl)-7H-pyrrolo[2,3-d]pyrimidine]	0.13	40.8	12.7	46.5	75	2.9	44.4	0.5	169 to 171	major apoptosis	–
COc1ncnc2c1c(I)cn2[C@@H]1O[C@H](CO)[C@@H](O)[C@H]1O [Compound 1h, 5-iodo-4-methoxy-7-(β-D-ribofuranosyl)-7H-pyrrolo[2,3-d]pyrimidine, reference compound]	2.3	37.9	12.9	49.2	6	0.9	38.9	0.2	–	–	barely inhibited
CSc1ncnc2c1c(-c1ccco1)cn2[C@@H]1O[C@H](CO)[C@@H](O)[C@H]1O [Compound 2a, 5-(Furan-2-yl)-4-methylsulfanyl-7-(β-D-ribofuranosyl)-7H-pyrrolo[2,3-d]pyrimidine]	0.12	43.5	11.3	45.3	7.9	0.7	29.5	5	–	–	barely inhibited
CNc1ncnc2c1c(-c1ccco1)cn2[C@@H]1O[C@H](CO)[C@@H](O)[C@H]1O [Compound 3a, 5-(Furan-2-yl)-4-methylamino-7-(β-D-ribofuranosyl)-7H-pyrrolo[2,3-d]pyrimidine]	0.62	42.2	12.1	45.8	10.6	1.4	47.2	1.	–	–	–
CN(C)c1ncnc2c1c(-c1ccco1)cn2[C@@H]1O[C@H](CO)[C@@H](O)[C@H]1O [Compound 4a, 4-Dimethylamino-5-(furan-2-yl)-7-(β-D-ribofuranosyl)-7H-pyrrolo[2,3-d]pyrimidine]	0.22	31	15.4	53.6	10.2	1.5	50.6	0.4	–	–	–
CN(C)c1ncnc2c1c(-c1ccsc1)cn2[C@@H]1O[C@H](CO)[C@@H](O)[C@H]1O [Compound 4d, 4-Dimethylamino-7-(β-D-ribofuranosyl)-5-(thiophen-3-yl)-7H-pyrrolo[2,3-d]pyrimidine]	1.92	41.4	11.2	47.4	6.8	0.7	36.1	0.7	–	–	barely inhibited
C#Cc1cn([C@@H]2O[C@H](CO)[C@@H](O)[C@H]2O)c2ncnc(N(C)C)c12 [Compound 4g, 4-Dimethylamino-5-ethynyl-7-(β-D-ribofuranosyl)-7H-pyrrolo[2,3-d]pyrimidine]	0.29	38.5	14.7	46.8	8.9	1.3	43.4	8.6	–	–	–
CN(C)c1ncnc2c1c(I)cn2[C@@H]1O[C@H](CO)[C@@H](O)[C@H]1O [Compound 4h, 4-Dimethylamino-5-iodo-7-(β-D-ribofuranosyl)-7H-pyrrolo[2,3-d]pyrimidine]	0.05	39.8	13.5	46.7	9.4	1.3	48.7	4.8	195 to 197	–	–
